Paper PMC5442318, “Hundreds of dual-stage antimalarial molecules discovered by a functional gametocyte screen” (Nature Communications, 2017)

Key:
[1] = system: P. falciparum male gametocytes (exflagellation); assay: Exflagellation assay (male gametocytes); format: cell-based, Plasmodium falciparum; design: Exflagellation Inhibition %: concentration or dose not given beside the values
Protocol: Figure 5 Exflagellation inhibition by six TCAMS compounds. Stage V gametocyte cultures were exposed to 2 μM of TCMDC-141070 and 1 μM of the five remaining compounds for 48 h. The percentage inhibition was determined compared to DMSO-treated controls. Compounds were then progressed into SMFA to further determine the transmission blocking in mosquitoes. Each bar represents mean value of two (TCMDC-125345, TCMDC-141698, TCMDC-123767, TCMDC-141154) or three (TCMDC-141070, TCMDC-124559) independent replicates with s.d.
Exflagellation was measured as previously reported[24] with minor modifications. Using 5 ml of day-14 gametocyte cultures, parasites were incubated with the corresponding concentration for each compound in six-well plates at 37 °C (3% O2, 5% CO2 and 92% N2). After 48 h incubation, a 200 μl sample was spun down in a microfuge, the supernatant was carefully removed and the pellet resuspended in 15 μl of pre-warmed ookinete medium. Parasites were placed in Fast-Read disposable haemocytometer slides and, after 15 min at room temperature (22 °C), exflagellation centres per field were counted under × 10 objective.

[2] = system: P. falciparum oocysts in Anopheles stephensi mosquitoes; assay: Standard membrane feeding assay (SMFA), indirect format; format: cell-based, Plasmodium falciparum; design: Oocyst Reduction Intensity %: concentration or dose not given beside the values; conditions: for Block in transmission (%) (reduction in oocyst prevalence): 1 or 2 μM (Pf FGAA IC90)
Protocol: To validate the transmission-blocking potential of the TCAMS hits and assess the predictive value of the Pf FGAA as an in vitro high throughput surrogate of full mosquito feeding, the ‘gold-standard' SMFA was performed. Six compounds showing different biological profiles, belonging to four distinct chemical clusters, were selected based on their potencies in the Pf FGAA (Supplementary Data 1, Table 1). For each compound, inhibition of exflagellation of male gametocytes was measured. […] Compounds were tested in duplicate in 2–3 independent experiments in the indirect format of the assay, that is, gametocytes were exposed to the drug for 48 h before mosquito feeding to replicate a drug exposure time equivalent to that used in the Pf FGAA. […] By contrast, TCMDC-124559 reduced prevalence and intensity by <20% (Fig. 6a,b, respectively).
Day-14 gametocyte cultures were plated in pre-warmed six-well-plates (5 ml per well) and were exposed to the compounds (1 μM or 2 μM final concentration) for 48 h at 37 °C (3% O2, 5% CO2 and 92% N2). Within this incubation time, 3 ml of media were removed after the first 24 h and replenished with the same volume of fresh media with compound added to obtain the required final concentration. After 48 h of total exposure, cultures were centrifuged at 2,500 g for 3 min at 37 °C, diluted 1:1 with 100% packed volume of fresh erythrocytes and finally formulated as artificial mosquito blood meals at 50% haematocrit with pre-warmed human serum. All steps were performed at 37 °C to avoid gametocyte activation. Four- to six-day old female Anopheles stephensi mosquitoes (GlaxoSmithKline Insectary) were fed for 30 min via Parafilm membrane attached to glass feeders (12831283, Fisher Scientific) connected to a 37 °C circulating water bath. Fed mosquitoes were maintained in an incubator at 27 °C and 75% relative humidity with 12 h light/dark cycles. Seven to eight days post-feeding, mosquitoes with fully developed ovaries were dissected for midguts, which were rinsed in a 0.2% mercury-dibromofluorescein (63869, Fluka) in water solution for 10 min. Total number of oocysts in individual midguts were counted using a light microscope (DM2000, Leica) under a × 10 objective. The percentage of block in transmission (reduction in prevalence) and the percentage of reduction in mean oocyst intensity were calculated after normalizing to the control DMSO-treated sample. Two to three independent SMFA experiments were performed and two internal duplicates of 40 mosquitoes each were used per compound. Mean oocyst intensities were not less than two oocysts per mosquito and the prevalence of infection ranged from 70 to 90% in the fed mosquito control groups. See complete experimental data set in Supplementary Table 1 and Supplementary Note 1.

[3] = system: HepG2 cells; assay: HepG2 cytotoxicity assay; format: cell-based
Procedure, shortened: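 Post-incubation CellTiter-Glo luminescence; 30 min RT equilibration, 10 min RT stabilization before reading.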

[4] = system: P. falciparum asexual blood stages; conditions: ref 1 (Gamo, F. J. et al., Nature 465, 305-310, 2010), cited from earlier work; for IC50: TCAMS asexual blood stage data, read-out: Pf Asexual blood stages XC50; for Pf Asexual stages XC50: TCAMS data
[5] = system: P. falciparum stages IV–V gametocytes; assay: Gametocytocidal ATP-depletion assay (gametocyte ATP bioluminescence); format: cell-based, Plasmodium falciparum; conditions: Plasmodium falciparum, mean
Procedure, shortened: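 Purified stage IV–V gametocytes (12,500/well) incubated with compound for 48 h at 37 °C under 3% O2/5% CO2. ATP measured by BacTiter-Glo luminescence as a viability surrogate; hits tested at 2 μM single concentration.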

[6] = 48 h exposure, 2 μM TCMDC-141070, 1 μM other compounds, vs DMSO, mean of 2-3 replicates
[7] = 48 h exposure before feeding, mean of 2-3 experiments
[8] = HepG2 TOX50 versus Pf FGAA IC50

| Structure (SMILES) | Inhibition of exflagellation (%) [1, 6] [%] | Exflagellation Inhibition % ([1]; Expt 2) [%] | Block in transmission (%) (reduction in oocyst prevalence) [2, 7] | Block in Transmission % ([2]; Expt 1) [%] | Mean Oocyst Intensity in Test Compound ([2]; Expt 1) | Oocyst Reduction Intensity % ([2]; Expt 1) [%] | Prevalence of Infection in Test Compound ([2]; Expt 1) | Block in Transmission % ([2]; Expt 2) [%] | Mean Oocyst Intensity in Test Compound ([2]; Expt 2) | Oocyst Reduction Intensity % ([2]; Expt 2) [%] | Prevalence of Infection in Test Compound ([2]; Expt 2) | Tox50 ([3]; HepG2, 48 h) [µM] | Selectivity ratio ([3]; HepG2 TOX50 / Pf FGAA IC50) | HepG2 cells mean TOX50 ([3]; mean; HepG2 cells) [µM] | IC50 [4] [µM] | Pf Asexual stages XC50 [4] [µM] | inhibition at 2 µM [5] [%] | Exflagellation Inhibition % ([1]; Expt 1) [%] | Selectivity ratio [3, 8] | HepG2 cells mean TOX50 ([3]; HepG2 cells; mean) [µM] | further results |
| --- | --- | --- | --- | --- | --- | --- | --- | --- | --- | --- | --- | --- | --- | --- | --- | --- | --- | --- | --- | --- | --- |
| Cc1ccc(Cn2nc(Cl)c(N3CCNCC3)cc2=O)cc1NC(=O)Nc1ccc(-c2ccccc2)cc1 [TCMDC-141698] | 84 | 87 | 82 | 82 | 0.2 | 97 | 14.04 | 90 | 0.2 | 97 | 8.8 | 4.79 | 10.79 | 4.79 | 0.68 | 0.67 | -7.4 | – | – | – | – |
| NCC1(c2nc(-c3ccc(Cl)c(O)c3)c(-c3ccncc3)[nH]2)CCCCC1 [TCMDC-141154] | 97 | 97 | 93 | 93 | 0.1 | 99 | 5.46 | 93 | 0.1 | 98 | 6.16 | 11.9 | 56.01 | 11.90 | 0.74 | 0.53 | -10.5 | 97 | – | – | – |
| CC1Cc2ccccc2N1S(=O)(=O)c1cccc(C(=O)Nc2nc(-c3ccccn3)cs2)c1 (stereo not shown) [TCMDC-124559] | 30 | 0 | < 20 | 5 | 4.1 | 24 | 74.29 | 0 | 2.5 | 0 | 70 | >100 | – | – | 1.32 | 1.32 | 8.95 | 28 | 146.27 | 50.12 | Exflagellation Inhibition % ([1]; Expt 3): 60%; reduction in oocyst intensity ([2]; 48 h exposure before feeding, 1 or 2 μM, mean of 2-3 experiments): < 20%; Block in Transmission % ([2]; Expt 3): 13%; Mean Oocyst Intensity in Test Compound ([2]; Expt 3): 2.8; Oocyst Reduction Intensity % ([2]; Expt 3): 39%; Prevalence of Infection in Test Compound ([2]; Expt 3): 79.17 |
| COc1cc(OC)cc(C(=O)Nc2nc(-c3ccccn3)cs2)c1 [TCMDC-125345] | 50 | – | 60 | 54 | 0.7 | 88 | 35.97 | 58 | 1.0 | 83 | 38.22 | 39.82 | – | – | 0.56 | 0.56 | 39.5 | 47 | 111.27 | 39.82 | – |
| CC(C)(CNC(=O)[C@H]1CCCCN1)c1nc(-c2ccc(Cl)c(O)c2)c(-c2ccncc2)[nH]1 [TCMDC-141070] | – | – | – | 100 | 0 | 100 | 0 | 78 | 0.2 | 92 | 15.4 | 28.96 | 54.30 | 28.96 | 0.73 | 0.73 | -0.73 | 75 | – | – | inhibition at 2 µM ([1]; Plasmodium falciparum, 48 h exposure, 2 μM TCMDC-141070, 1 μM other compounds, vs DMSO, mean of 2-3 replicates): 99%; Block in Transmission % ([2]; Expt 3): 100%; Mean Oocyst Intensity in Test Compound ([2]; Expt 3): 0; Oocyst Reduction Intensity % ([2]; Expt 3): 100%; Prevalence of Infection in Test Compound ([2]; Expt 3): 0 |
| FC(F)(F)c1cnc(Sc2nnc(-c3ccncc3)o2)c(Cl)c1 [TCMDC-123767] | 88 | 88 | 83 | 83 | 0.1 | 97 | 13.26 | 85 | 0.1 | 97 | 13.2 | 100 | – | – | 0.27 | 0.27 | -5.49 | 88 | >625 | >100 | HepG2 cells TOX50 ([3]; HepG2 cells): >100 µM |
